Key:
proteasome β1 subunit [1] = molecular target: T1, proteasome β1 subunit (Homo sapiens, UniProt P28072); experiment: Competition assay versus MVB003 in HEK293T lysate, β1 band; format: biochemical
proteasome β2 subunit = proteasome β2 subunit (Homo sapiens, UniProt Q99436); experiment: Competition assay versus MVB003 in HEK293T lysate, β2 band; format: biochemical
proteasome β5 subunit = proteasome β5 subunit (Homo sapiens, UniProt P28074); experiment: Competition assay versus MVB003 in HEK293T lysate, β5 band; format: biochemical
proteasome β1 subunit [2] = molecular target: T1, proteasome β1 subunit; experiment: Competition assay versus MVB003 in living HEK cells, β1 band; format: cell-based; conditions: inhibitor 4 h
[3] = test system: proteasome in living HEK cells

Row | Structure (SMILES) | IC50 (proteasome β1 subunit [1]) [nM] | IC50 (proteasome β2 subunit) [nM] | IC50 (proteasome β5 subunit) [nM] | Potency in living HEK cells relative to NC001 (proteasome β1 subunit [2]) | Cell permeability [3] | Fold lower concentration for β5 inhibition compared to SylA (proteasome β5 subunit; HEK lysate, Fig. 7) | Inhibition of β5 in HEK lysate (proteasome β5 subunit; HEK lysate, at 100 nM inhibitor, Fig. 7)
1 | CC(C)C[C@H](NC(=O)[C@@H](NC(=O)N[C@H](C(=O)OC(C)(C)C)C(C)C)C(C)C)C(=O)[C@@]1(C)CO1 [Compound 5, tBuO-Val-urea-Val-Leu-EK2] | 460 | > 50000 | ~50000 | fivefold higher potency |  |  | 
2 | CC(C)C[C@H](NC(=O)[C@@H](NC(=O)N[C@H](C(=O)O)C(C)C)C(C)C)C(=O)[C@@]1(C)CO1 [Compound 6, HO-Val-urea-Val-Leu-EK] | 1400 | > 50000 | > 50000 |  |  |  | 
3 | CC(C)C[C@H](NC(=O)[C@@H](NC(=O)N[C@H](C(=O)NCc1ccccc1)C(C)C)C(C)C)C(=O)[C@@]1(C)CO1 [Compound 7, Benzylamide-Val-urea-Val-Leu-EK] | 520 | > 50000 | 2900 |  |  |  | 

Further lines, results first:

Row | IC50 (proteasome β1 subunit [1]) [nM] | IC50 (proteasome β2 subunit) [nM] | IC50 (proteasome β5 subunit) [nM] | Potency in living HEK cells relative to NC001 (proteasome β1 subunit [2]) | Cell permeability [3] | Fold lower concentration for β5 inhibition compared to SylA (proteasome β5 subunit; HEK lysate, Fig. 7) | Inhibition of β5 in HEK lysate (proteasome β5 subunit; HEK lysate, at 100 nM inhibitor, Fig. 7) | Structure (SMILES)
4 | 1300 | 690 | 16 |  | cell permeable | about 100 fold | fully inhibits | CC(C)C[C@H](NC(=O)[C@@H](NC(=O)N[C@H](C(=O)OC(C)(C)C)C(C)C)C(C)C)C(=O)N[C@@H](CC(C)C)C(=O)[C@@]1(C)CO1 [Compound 13, tBuO-Val-urea-Val-Leu2-EK]
5 |  |  | 480 |  |  |  |  | CC(C)C[C@H](NC(=O)[C@@H](NC(=O)N[C@H](C(=O)O)C(C)C)C(C)C)C(=O)N[C@@H](CC(C)C)C(=O)[C@@]1(C)CO1 [Compound 14, HO-Val-urea-Val-Leu2-EK]
6 |  |  |  |  | cell permeable | about 100 fold |  | CC(C)C[C@H](NC(=O)[C@@H](NC(=O)N[C@H](C(=O)NCc1ccccc1)C(C)C)C(C)C)C(=O)N[C@@H](CC(C)C)C(=O)[C@@]1(C)CO1 [Compound 15, Benzylamide-Val-urea-Val-Leu2-EK]
7 | > 50000 | > 50000 |  |  |  |  |  | CCCCCCCCCCNC(=O)N[C@H](C(=O)N[C@@H](CC(C)C)C(=O)N[C@@H](CC(C)C)C(=O)[C@@]1(C)CO1)C(C)C [Compound 16, Decyl-urea-Val-Leu2-EK]

Source: paper PMC3769973 (Organic & biomolecular chemistry, 2011)
